Results on 8 compounds are retold here after patent US8999994B2, “Derivatives of propargylamine having neuroprotective capacity for the treatment of Alzheimer's and Parkinson's diseases” (Consejo Superior de Investigaciones Cientificas, priority 2010, dated 2015).

Holding throughout (assay type): biochemical
One assay concerns the target MAO-B (Rattus norvegicus (Rat), UniProt P19643). The assay can be described thus: Inhibition of monoamine oxidase B (Fowler and Tipton radiometric method, rat liver mitochondria).
A further assay concerns the target MAO-A (Rattus norvegicus (Rat), UniProt P21396). Nature of the assay: Inhibition of monoamine oxidase A (Fowler and Tipton radiometric method, rat liver mitochondria).
The target in another assay is AChE (electric eel) (Electrophorus electricus (Electric eel) (Gymnotus electricus), UniProt O42275). The conditions noted are these: acetylthiocholine iodide […], 10 min incubation, mean ± SEM, read-out: IC50 (μM) ChE EeAChE.
[1] abbreviates: rat liver mitochondria, [14C]-phenylethylamine 20 μM substrate, 30 min incubation, mean ± SEM.
Setting [2] is: rat liver mitochondria, [14C]-5-HT 100 μM substrate, 30 min incubation, mean ± SEM, read-out: IC50 (μM) MAO MAO-A.

SMILES strings stand for the structures. Where two headings read alike, the source gives them in different places. A value given as a limit tells only on which side of the number the result lay.

Sequence of AChE (electric eel) (O42275 whole entry, looked up): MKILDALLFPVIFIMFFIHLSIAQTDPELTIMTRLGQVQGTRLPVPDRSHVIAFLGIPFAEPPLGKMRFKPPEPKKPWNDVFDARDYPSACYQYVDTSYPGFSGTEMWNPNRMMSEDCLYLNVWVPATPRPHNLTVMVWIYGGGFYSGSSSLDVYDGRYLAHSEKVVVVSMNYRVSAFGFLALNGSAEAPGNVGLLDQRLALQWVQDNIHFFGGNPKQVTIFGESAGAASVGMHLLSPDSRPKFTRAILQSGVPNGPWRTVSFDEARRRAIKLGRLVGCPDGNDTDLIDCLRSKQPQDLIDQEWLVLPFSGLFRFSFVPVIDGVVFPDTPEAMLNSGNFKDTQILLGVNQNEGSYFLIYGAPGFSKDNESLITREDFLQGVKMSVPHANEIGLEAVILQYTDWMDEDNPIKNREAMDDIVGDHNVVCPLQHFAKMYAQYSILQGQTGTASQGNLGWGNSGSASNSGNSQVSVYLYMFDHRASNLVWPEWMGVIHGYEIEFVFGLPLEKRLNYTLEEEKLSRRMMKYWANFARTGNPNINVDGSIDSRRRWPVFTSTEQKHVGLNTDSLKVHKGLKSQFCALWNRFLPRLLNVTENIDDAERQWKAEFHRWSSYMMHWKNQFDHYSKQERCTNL
Sequence of MAO-A (P21396 whole entry): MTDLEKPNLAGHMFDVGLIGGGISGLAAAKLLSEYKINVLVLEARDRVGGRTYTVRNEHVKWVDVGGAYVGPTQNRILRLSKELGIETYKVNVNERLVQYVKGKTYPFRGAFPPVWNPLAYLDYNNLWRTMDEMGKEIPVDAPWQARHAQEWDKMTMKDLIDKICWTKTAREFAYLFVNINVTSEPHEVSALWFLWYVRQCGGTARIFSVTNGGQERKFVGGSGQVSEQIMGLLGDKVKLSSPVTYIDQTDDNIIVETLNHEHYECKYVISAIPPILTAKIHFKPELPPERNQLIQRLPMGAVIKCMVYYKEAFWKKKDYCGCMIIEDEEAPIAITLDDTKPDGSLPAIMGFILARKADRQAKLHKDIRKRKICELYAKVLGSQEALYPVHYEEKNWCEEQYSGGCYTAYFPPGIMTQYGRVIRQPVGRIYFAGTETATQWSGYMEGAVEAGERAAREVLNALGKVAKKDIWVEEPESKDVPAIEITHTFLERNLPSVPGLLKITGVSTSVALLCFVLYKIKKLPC
Sequence of MAO-B (P19643 whole entry): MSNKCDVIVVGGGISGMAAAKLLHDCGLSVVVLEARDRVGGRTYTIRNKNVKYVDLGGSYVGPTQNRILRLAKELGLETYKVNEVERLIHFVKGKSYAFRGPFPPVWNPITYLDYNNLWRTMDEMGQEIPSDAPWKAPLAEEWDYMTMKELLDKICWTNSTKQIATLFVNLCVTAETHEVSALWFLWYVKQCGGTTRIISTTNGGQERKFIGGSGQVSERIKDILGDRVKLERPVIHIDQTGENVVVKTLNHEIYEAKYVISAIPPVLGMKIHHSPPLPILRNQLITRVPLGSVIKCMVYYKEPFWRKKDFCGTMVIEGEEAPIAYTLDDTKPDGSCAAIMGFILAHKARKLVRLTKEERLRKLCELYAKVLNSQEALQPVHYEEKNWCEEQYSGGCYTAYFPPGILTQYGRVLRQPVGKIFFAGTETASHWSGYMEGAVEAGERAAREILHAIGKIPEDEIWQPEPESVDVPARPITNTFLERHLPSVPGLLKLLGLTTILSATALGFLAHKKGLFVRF

Take `C#CCN(C)Cc1cc2cc(OCCN3CCC(Cc4ccccc4)CC3)ccc2n1C` [Compound 1, N-{(5-[2-(4-benzylpiperidin-1-yl)ethoxy)-1-methyl-1H-indol-2-yl]methyl}-N-methylprop-2-yn-1-amine]: the concentration for half-maximal inhibition (IC50) against MAO-B (setting [1]) was 1.46 ± 0.499 µM; on MAO-A (setting [2]), 0.143 ± 0.0443 µM; at AChE (electric eel), more than 100 µM.

As to `C#CCN(C)Cc1cc2cc(OCCCC3CCN(Cc4ccccc4)CC3)ccc2n1C` [Compound 6, N-((5-[3-(1-benzylpiperidin-4-yl)propoxy)-1-methyl-1H-indol-2-yl)methyl)-N-methylprop-2-yn-1-amine], the IC50 at MAO-B (setting [1]) amounted to 0.0431 ± 0.0079 µM; on MAO-A (setting [2]), 0.0052 ± 0.0011 µM.

As for `C#CCN(C)Cc1cc2cc(OCCCN3CCN(Cc4ccccc4)CC3)ccc2n1C` [Compound 3, N-{(5-[3-(4-benzylpiperazin-1-yl)propoxy)-1-methyl-1H-indol-2-yl]methyl}-N-methylprop-2-yn-1-amine], the IC50 is 1.64 ± 0.707 µM against MAO-B (setting [1]), 0.0305 ± 0.0135 µM against MAO-A and more than 100 µM at AChE (electric eel).

For the compound `C#CCN(C)Cc1cc2cc(OCCC3CCN(Cc4ccccc4)CC3)ccc2n1C` [Compound 5, N-((5-(2-(1-benzylpiperidin-4-yl)ethoxy)-1-methyl-1H-indol-2-yl)methyl)-N-methylprop-2-yn-1-amine], the half-maximal inhibitory concentration (IC50) at MAO-B came to 0.13 ± 0.0414 µM; at MAO-A (setting [2]) it was 0.0067 ± 0.0018 µM; at AChE (electric eel), 0.42 ± 0.04 µM.

For `Nc1c2c(nc3ccccc13)CCCC2` [Tacrine, tacrine, reference compound], the “IC50 (μM) MAO MAO-B” value against MAO-B worked out at 499.6 ± 12.8 µM.

Regarding `C#CCN(C)Cc1cc2cc(OCCCCC3CCN(Cc4ccccc4)CC3)ccc2n1C` [Compound 7, N-((5-[4-(1-benzylpiperidin-4-yl)butoxy)-1-methyl-1H-indol-2-yl)methyl)-N-methylprop-2-yn-1-amine], the IC50 at MAO-B (setting [1]) was determined as 2.77 ± 0.116 µM; at MAO-A (setting [2]), 0.0105 ± 0.0044 µM; on AChE (electric eel), 0.26 ± 0.07 µM.

For the compound `C#CCN(C)Cc1cc2cc(OCCCN3CCC(Cc4ccccc4)CC3)ccc2n1C` [Compound 2, N-{(5-[3-(4-benzylpiperidin-1-yl)propoxy)-1-methyl-1H-indol-2-yl]methyl}-N-methylprop-2-yn-1-amine], the values for the half-maximal inhibitory concentration (IC50) against MAO-B (setting [1]), at MAO-A (read-out: IC50 (μM) MAO MAO-A) and at AChE (electric eel) were 11.3 ± 2.38 µM, 0.0654 ± 0.0174 µM and 18.1 ± 0.4 µM, respectively.

As for `C#CCN(C)Cc1cc2cc(OCC3CCN(Cc4ccccc4)CC3)ccc2n1C` [Compound 4, N-{(5-((1-benzylpiperidin-4-yl)methoxy)-1-methyl-1H-indol-2-yl)methyl}-N-methylprop-2-yn-1-amine], the 50% inhibitory concentration (IC50) turned out to be 0.745 ± 0.0199 µM on MAO-B, 0.0822 ± 0.0032 µM at MAO-A (setting [2]) and 0.31 ± 0.04 µM at AChE (electric eel).
